Measured values: patent US7723372B2, “Spiroindolinone derivatives” (Hoffman-La Roche Inc., priority 2008, dated 2010)

Biological target: interaction between p53 and MDM2 proteins (recombinant GST-tagged MDM2, biotinylated p53 peptide) (Homo sapiens, UniProt Q00987)
Experiment: HTRF assay of inhibition of the p53-MDM2 interaction
Assay type: binding
Conditions: 0.02% BSA
Method: The ability of the compounds to inhibit the interaction between p53 and MDM2 proteins was measured by an HTRF (homogeneous time-resolved fluorescence) assay in which recombinant GST-tagged MDM2 binds to a peptide that resembles the MDM2-interacting region of p53 (Lane et al.), Binding of GST-MDM2 protein and p53-peptide (biotinylated on its N-terminal end) is registered by the FRET (fluorescence resonance energy transfer) between Europium (Eu)-labeled ant-GST antibody and streptavidin-conjugated Allophycocyanin (APC).
[…] Add 10 uL diluted compounds (1:5 dilution in reaction buffer) to each well, mix by shaking. Add 20 uL biotinylated p53 peptide (180 nM working solution) in reaction buffer to each well and mix on shaker. Incubate at 37° C. for 1 h. Add 20 uL streptavidin-APC and Eu-anti-GST antibody mixture (6 nM Eu-anti-GST and 60 nM streptavidin-APC working solution) in TBS buffer with 0.2% BSA, shake at room temperature for 30 minutes and read using a TRF-capable plate reader at 665 and 615 nm (Victor 5, Perkin ElmerWallac). If not specified, the reagents were purchased from Sigma Chemical Co.

Chain of interaction between p53 and MDM2 proteins (recombinant GST-tagged MDM2, biotinylated p53 peptide) (Q00987 whole entry): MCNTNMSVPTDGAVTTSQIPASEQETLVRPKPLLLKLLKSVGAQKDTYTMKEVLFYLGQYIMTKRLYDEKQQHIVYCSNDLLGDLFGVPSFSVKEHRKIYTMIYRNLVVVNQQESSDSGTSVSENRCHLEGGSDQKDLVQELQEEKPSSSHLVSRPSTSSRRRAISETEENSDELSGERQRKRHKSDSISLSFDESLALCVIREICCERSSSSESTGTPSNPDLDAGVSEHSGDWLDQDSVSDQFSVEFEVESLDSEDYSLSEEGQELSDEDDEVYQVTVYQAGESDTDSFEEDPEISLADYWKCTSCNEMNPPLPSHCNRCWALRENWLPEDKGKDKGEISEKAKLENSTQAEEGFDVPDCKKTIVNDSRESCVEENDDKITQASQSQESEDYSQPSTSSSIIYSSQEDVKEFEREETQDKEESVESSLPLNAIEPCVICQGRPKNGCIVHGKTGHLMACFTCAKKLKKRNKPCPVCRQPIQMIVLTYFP

`C/C=C/C1=CC(=O)C[C@@H](c2cccc(Cl)c2)[C@]12C(=O)Nc1cc(Cl)ccc12` (racemic) [Example 10 (Compound B), rac-(1S,6S)-6′-chloro-6-(3-chlorophenyl)-2-(E)-(1-propenyl)spiro[2-cyclohexene-1,3′-[3H]indole]-2′,4(1′H)-dione] was tested, and the IC50 was 5.9 µM.
`C=Cc1ccccc1C1=CC(=O)C[C@@H](c2cccc(Cl)c2)[C@]12C(=O)Nc1cc(Cl)ccc12` (racemic) [Example 44 (Compound A), rac-(1R,6S)-6′-chloro-6-(3-chlorophenyl)-2-(2-ethylenephenyl)spiro[2-cyclohexene-1,3′-[3H]indole]-2′,4(1′H)-dione] was tested, and the IC50 was 1.39 µM.
`Cc1ccc(F)cc1C1=C[C@@]2(C(=O)Nc3cc(Cl)ccc32)[C@H](c2cccc(Cl)c2)C[C@@H]1O` (racemic) [Example 5, rac-(1R, 4S, 6S)-6′-chloro-6-(3-chlorophenyl)-3-(5-fluoro-2-methylphenyl)-4-hydroxyspiro[2-cyclohexene-1,3′-[3H]indol]-2′(1′H)-one] was tested, and the IC50 was 1.6 µM.
Compound `O=C1C[C@@H](c2cccc(Cl)c2)[C@@]2(C=C1c1ccc(F)cc1O)C(=O)Nc1cc(Cl)ccc12` (racemic) [Example 18, rac-(1R,6S)-6′-chloro-6-(3-chlorophenyl)-3-(4-fluoro-2-hydroxyphenyl)spiro[2-cyclohexene-1,3′-[3H]indole]-2′,4(1′H)-dione] has an IC50 of 2.99 µM.
For `O=C1C[C@@H](c2cccc(Cl)c2)[C@@]2(C=C1c1cc(F)ccc1O)C(=O)Nc1cc(Cl)ccc12` (racemic) [Example 17, rac-(1R,6S)-6′-chloro-6-(3-chlorophenyl)-3-(5-fluoro-2-hydroxyphenyl)spiro[2-cyclohexene-1,3′-[3H]indole]-2′,4(1′H)-dione], the IC50 was 1.66 µM.
